Measured values from PubChem BioAssay (NCI).
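48-hour exposure; five concentrations; linearly interpolated endpoints. TGI: concentration producing complete growth inhibition.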

Tests used:
Assay in all cases: DTP human tumour cell line panel, 48 h
786-0 renal = test system: 786-0 renal
A549 NSCLC = test system: A549 NSCLC
ACHN renal = test system: ACHN renal
CAKI-1 renal = test system: CAKI-1 renal
CCRF-CEM leukemia = test system: CCRF-CEM leukemia
COLO 205 colon = test system: COLO 205 colon
DLD-1 colon = test system: DLD-1 colon
DMS 114 small cell lung = test system: DMS 114 small cell lung
DMS 273 small cell lung = test system: DMS 273 small cell lung
EKVX NSCLC = test system: EKVX NSCLC
HCC-2998 colon = test system: HCC-2998 colon
HCT-116 colon = test system: HCT-116 colon
HCT-15 colon = test system: HCT-15 colon
HL-60(TB) leukemia = test system: HL-60(TB) leukemia
HOP-18 NSCLC = test system: HOP-18 NSCLC
HOP-62 NSCLC = test system: HOP-62 NSCLC
HT29 colon = test system: HT29 colon
IGROV1 ovarian = test system: IGROV1 ovarian
K-562 leukemia = test system: K-562 leukemia
KM12 colon = test system: KM12 colon
KM20L2 colon = test system: KM20L2 colon
LOX IMVI melanoma = test system: LOX IMVI melanoma
LXFL 529 NSCLC = test system: LXFL 529 NSCLC
M14 melanoma = test system: M14 melanoma
M19-MEL melanoma = test system: M19-MEL melanoma
MALME-3M melanoma = test system: MALME-3M melanoma
MOLT-4 leukemia = test system: MOLT-4 leukemia
NCI-H226 lung = test system: NCI-H226 lung
NCI-H23 lung = test system: NCI-H23 lung
NCI-H460 lung = test system: NCI-H460 lung
NCI-H522 lung = test system: NCI-H522 lung
OVCAR-3 ovarian = test system: OVCAR-3 ovarian
OVCAR-4 ovarian = test system: OVCAR-4 ovarian
OVCAR-5 ovarian = test system: OVCAR-5 ovarian
OVCAR-8 ovarian = test system: OVCAR-8 ovarian
RPMI-8226 leukemia = test system: RPMI-8226 leukemia
RXF 393 renal = test system: RXF 393 renal
SF-268 CNS = test system: SF-268 CNS
SF-295 CNS = test system: SF-295 CNS
SK-MEL-2 melanoma = test system: SK-MEL-2 melanoma
SK-MEL-28 melanoma = test system: SK-MEL-28 melanoma
SK-OV-3 ovarian = test system: SK-OV-3 ovarian
SN12C renal = test system: SN12C renal
SNB-19 CNS = test system: SNB-19 CNS
SNB-75 CNS = test system: SNB-75 CNS
SNB-78 CNS = test system: SNB-78 CNS
SR leukemia = test system: SR leukemia
SW-620 colon = test system: SW-620 colon
TK-10 renal = test system: TK-10 renal
UACC-257 melanoma = test system: UACC-257 melanoma
UACC-62 melanoma = test system: UACC-62 melanoma
UO-31 renal = test system: UO-31 renal
XF 498 CNS = test system: XF 498 CNS
HOP-92 NSCLC = test system: HOP-92 NSCLC
RXF-631 renal = test system: RXF-631 renal
SK-MEL-5 melanoma = test system: SK-MEL-5 melanoma

Molecule `CCOC(=O)C1C(c2ccc(Br)cc2)N(Cc2ccccc2)C(c2ccc(Br)cc2)C(C(=O)OC)S1(=O)=O` (centres undefined) has a TGI (786-0 renal) of over 100 µM, a TGI (A549 NSCLC) of over 100 µM and a TGI (ACHN renal) of over 100 µM. It also gave a TGI (CAKI-1 renal) of over 100 µM, a TGI (CCRF-CEM leukemia) of over 100 µM and a TGI (COLO 205 colon) of over 100 µM. For the same molecule, the TGI (DLD-1 colon) was over 100 µM, the TGI (DMS 114 small cell lung) was over 100 µM and the TGI (DMS 273 small cell lung) was over 100 µM. For the same molecule, the TGI (EKVX NSCLC) was over 100 µM, the TGI (HCC-2998 colon) was over 100 µM and the TGI (HCT-116 colon) was over 100 µM. The TGI (HCT-15 colon) was over 100 µM, the TGI (HL-60(TB) leukemia) was over 100 µM and the TGI (HOP-18 NSCLC) was 72.9 µM. For the same molecule, the TGI (HOP-62 NSCLC) was over 100 µM, the TGI (HT29 colon) was over 100 µM and the TGI (IGROV1 ovarian) was over 100 µM. The TGI (K-562 leukemia) was over 100 µM, the TGI (KM12 colon) was over 100 µM and the TGI (KM20L2 colon) was over 100 µM. The TGI (LOX IMVI melanoma) was over 100 µM, the TGI (LXFL 529 NSCLC) was over 100 µM and the TGI (M14 melanoma) was over 100 µM. For the same molecule, the TGI (M19-MEL melanoma) was over 100 µM, the TGI (MALME-3M melanoma) was over 100 µM and the TGI (MOLT-4 leukemia) was over 100 µM. It also gave a TGI (NCI-H226 lung) of over 100 µM, a TGI (NCI-H23 lung) of over 100 µM and a TGI (NCI-H460 lung) of over 100 µM. For the same molecule, the TGI (NCI-H522 lung) was over 100 µM, the TGI (OVCAR-3 ovarian) was over 100 µM and the TGI (OVCAR-4 ovarian) was over 100 µM. It also gave a TGI (OVCAR-5 ovarian) of over 100 µM, a TGI (OVCAR-8 ovarian) of 84.6 µM and a TGI (RPMI-8226 leukemia) of over 100 µM. It also gave a TGI (RXF 393 renal) of over 100 µM, a TGI (SF-268 CNS) of over 100 µM and a TGI (SF-295 CNS) of over 100 µM. The TGI (SK-MEL-2 melanoma) was over 100 µM, the TGI (SK-MEL-28 melanoma) was over 100 µM and the TGI (SK-OV-3 ovarian) was over 100 µM. For the same molecule, the TGI (SN12C renal) was over 100 µM, the TGI (SNB-19 CNS) was over 100 µM and the TGI (SNB-75 CNS) was 57.3 µM. The TGI (SNB-78 CNS) was over 100 µM, the TGI (SR leukemia) was over 100 µM and the TGI (SW-620 colon) was over 100 µM. The TGI (TK-10 renal) was over 100 µM, the TGI (UACC-257 melanoma) was over 100 µM and the TGI (UACC-62 melanoma) was over 100 µM. The TGI (UO-31 renal) was over 100 µM and the TGI (XF 498 CNS) was over 100 µM.
`Cc1cccc(C)c1NC(=O)CCCC(=O)C(C#N)c1ccccc1` (centres undefined) gave a TGI (ACHN renal) of over 100 µM, a TGI (CAKI-1 renal) of over 100 µM and a TGI (CCRF-CEM leukemia) of over 100 µM. The TGI (COLO 205 colon) was over 100 µM, the TGI (DLD-1 colon) was over 100 µM and the TGI (HCT-116 colon) was over 100 µM. The TGI (HL-60(TB) leukemia) was over 100 µM, the TGI (HOP-92 NSCLC) was over 100 µM and the TGI (IGROV1 ovarian) was over 100 µM. The TGI (K-562 leukemia) was over 100 µM, the TGI (LXFL 529 NSCLC) was over 100 µM and the TGI (M14 melanoma) was over 100 µM. It also gave a TGI (M19-MEL melanoma) of over 100 µM, a TGI (MOLT-4 leukemia) of over 100 µM and a TGI (NCI-H226 lung) of over 100 µM. For the same molecule, the TGI (NCI-H23 lung) was over 100 µM, the TGI (NCI-H522 lung) was over 100 µM and the TGI (OVCAR-4 ovarian) was over 100 µM. It also gave a TGI (RPMI-8226 leukemia) of over 100 µM, a TGI (RXF 393 renal) of over 100 µM and a TGI (RXF-631 renal) of over 100 µM. For the same molecule, the TGI (SK-MEL-2 melanoma) was over 100 µM, the TGI (SK-MEL-28 melanoma) was over 100 µM and the TGI (SK-MEL-5 melanoma) was over 100 µM. The TGI (SK-OV-3 ovarian) was over 100 µM, the TGI (SNB-75 CNS) was over 100 µM and the TGI (SNB-78 CNS) was over 100 µM. The TGI (SR leukemia) was over 100 µM, the TGI (SW-620 colon) was over 100 µM and the TGI (UACC-257 melanoma) was over 100 µM. The TGI (UO-31 renal) was over 100 µM.
